We go through 1 compound from patent US20120270237A9, “METHODS FOR THE IDENTIFICATION OF KINASE INTERACTING MOLECULES AND FOR THE PURIFICATION OF KINASE PROTEINS” (Cellzone AG, priority 2009, published 2012).

Holding throughout (experiment): Kinobeads competition binding with immobilized CZC25342, mixed HeLa placenta lysates (Example 5, Table 7)
Assay [1] concerns the target T1, kinases from mixed HeLa placenta lysates (Homo sapiens, UniProt O14965).
T1 construct: capturing and identification of kinases from mixed HeLa placenta lysates; endogenous in cells; host or cells: mixed lysate of HeLa cells and placenta tissue
The settings on record: kinase AurA; 10 μM free compound; HeLa Placenta lysate mix. The procedure, abridged:
(§1)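 Mixed HeLa/placenta lysate was preincubated with 10 μM free CZC25342 or DMSO, followed by capture on beads bearing immobilized compound. Bound proteins were eluted, separated by SDS-PAGE, trypsin-digested, iTRAQ-labelled and quantified by LC-MS/MS. Percent competition was taken against the DMSO control.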

Assay [2] concerns the target T2, kinases from mixed HeLa placenta lysates (Homo sapiens, UniProt O95382).
T2 construct: capturing and identification of kinases from mixed HeLa placenta lysates; endogenous in cells; host or cells: mixed lysate of HeLa cells and placenta tissue
The following applies: kinase MAP3K6; 10 μM free compound; HeLa Placenta lysate mix. The procedure, abridged:
as §1

Assay [3] deals with T3, kinases from mixed HeLa placenta lysates (Homo sapiens, UniProt O96013).
T3 construct: capturing and identification of kinases from mixed HeLa placenta lysates; endogenous in cells; host or cells: mixed lysate of HeLa cells and placenta tissue
The settings on record: kinase PAK4; 10 μM free compound; HeLa Placenta lysate mix. An outline of the steps:
as §1

For assay [4], the target named is T4, kinases from mixed HeLa placenta lysates (Homo sapiens, UniProt P28482).
T4 construct: capturing and identification of kinases from mixed HeLa placenta lysates; endogenous in cells; host or cells: mixed lysate of HeLa cells and placenta tissue
The settings on record: kinase Erk2; 10 μM free compound; HeLa Placenta lysate mix. The procedure, abridged: as §1

Assay [5] addresses T5, kinases from mixed HeLa placenta lysates (Homo sapiens, UniProt P36894).
T5 construct: capturing and identification of kinases from mixed HeLa placenta lysates; endogenous in cells; host or cells: mixed lysate of HeLa cells and placenta tissue
The following applies: kinase BMPR1A; 10 μM free compound; HeLa Placenta lysate mix. The procedure, abridged: as §1

For assay [6], the target named is T6, kinases from mixed HeLa placenta lysates (Homo sapiens, UniProt P45984).
T6 construct: capturing and identification of kinases from mixed HeLa placenta lysates; endogenous in cells; host or cells: mixed lysate of HeLa cells and placenta tissue
The following applies: kinase JNK2; 10 μM free compound; HeLa Placenta lysate mix. An outline of the steps: as §1

In assay [7] the target is T7, kinases from mixed HeLa placenta lysates (Homo sapiens, UniProt P48426).
T7 construct: capturing and identification of kinases from mixed HeLa placenta lysates; endogenous in cells; host or cells: mixed lysate of HeLa cells and placenta tissue
The following applies: kinase PIP5K2A; 10 μM free compound; HeLa Placenta lysate mix. The procedure, abridged:
as §1

The target of assay [8] is T8, kinases from mixed HeLa placenta lysates (Homo sapiens, UniProt P49841).
T8 construct: capturing and identification of kinases from mixed HeLa placenta lysates; endogenous in cells; host or cells: mixed lysate of HeLa cells and placenta tissue
The following applies: kinase GSK3B; 10 μM free compound; HeLa Placenta lysate mix. The procedure, abridged: as §1

In assay [9] the target is T9, kinases from mixed HeLa placenta lysates (Homo sapiens, UniProt P50750).
T9 construct: capturing and identification of kinases from mixed HeLa placenta lysates; endogenous in cells; host or cells: mixed lysate of HeLa cells and placenta tissue
The following applies: kinase CDK9; 10 μM free compound; HeLa Placenta lysate mix. An outline of the steps: as §1

In assay [10] the target is T10, kinases from mixed HeLa placenta lysates (Homo sapiens, UniProt P51812).
T10 construct: capturing and identification of kinases from mixed HeLa placenta lysates; endogenous in cells; host or cells: mixed lysate of HeLa cells and placenta tissue
The settings on record: kinase RSK2; 10 μM free compound; HeLa Placenta lysate mix. An outline of the steps:
as §1

Assay [11] deals with T11, kinases from mixed HeLa placenta lysates (Homo sapiens, UniProt P51956).
T11 construct: capturing and identification of kinases from mixed HeLa placenta lysates; endogenous in cells; host or cells: mixed lysate of HeLa cells and placenta tissue
The settings on record: kinase NEK3; 10 μM free compound; HeLa Placenta lysate mix. The procedure, abridged: as §1

For assay [12], the target named is T12, kinases from mixed HeLa placenta lysates (Homo sapiens, UniProt P53350).
T12 construct: capturing and identification of kinases from mixed HeLa placenta lysates; endogenous in cells; host or cells: mixed lysate of HeLa cells and placenta tissue
The settings on record: kinase PLK1; 10 μM free compound; HeLa Placenta lysate mix. An outline of the steps: as §1

Assay [13] deals with T13, kinases from mixed HeLa placenta lysates (Homo sapiens, UniProt P68400).
T13 construct: capturing and identification of kinases from mixed HeLa placenta lysates; endogenous in cells; host or cells: mixed lysate of HeLa cells and placenta tissue
The following applies: kinase CK2a1; 10 μM free compound; HeLa Placenta lysate mix. The procedure, abridged: as §1

Assay [14] deals with T14, kinases from mixed HeLa placenta lysates (Homo sapiens, UniProt P78356).
T14 construct: capturing and identification of kinases from mixed HeLa placenta lysates; endogenous in cells; host or cells: mixed lysate of HeLa cells and placenta tissue
The following applies: kinase PIP5K2B; 10 μM free compound; HeLa Placenta lysate mix. The procedure, abridged:
as §1

Assay [15] has as its target T15, kinases from mixed HeLa placenta lysates (Homo sapiens, UniProt P78527).
T15 construct: capturing and identification of kinases from mixed HeLa placenta lysates; endogenous in cells; host or cells: mixed lysate of HeLa cells and placenta tissue
The following applies: kinase DNAPK; 10 μM free compound; HeLa Placenta lysate mix. An outline of the steps: as §1

The target in assay [16] is T16, kinases from mixed HeLa placenta lysates (Homo sapiens, UniProt Q00535).
T16 construct: capturing and identification of kinases from mixed HeLa placenta lysates; endogenous in cells; host or cells: mixed lysate of HeLa cells and placenta tissue
The following applies: kinase CDK5; 10 μM free compound; HeLa Placenta lysate mix. An outline of the steps:
as §1

Assay [17] concerns the target T17, kinases from mixed HeLa placenta lysates (Homo sapiens, UniProt Q05397).
T17 construct: capturing and identification of kinases from mixed HeLa placenta lysates; endogenous in cells; host or cells: mixed lysate of HeLa cells and placenta tissue
The following applies: kinase FAK; 10 μM free compound; HeLa Placenta lysate mix. An outline of the steps:
as §1

Assay [18] has as its target T18, kinases from mixed HeLa placenta lysates (Homo sapiens, UniProt Q12866).
T18 construct: capturing and identification of kinases from mixed HeLa placenta lysates; endogenous in cells; host or cells: mixed lysate of HeLa cells and placenta tissue
The settings on record: kinase MER; 10 μM free compound; HeLa Placenta lysate mix. An outline of the steps:
as §1

In assay [19] the target is T19, kinases from mixed HeLa placenta lysates (Homo sapiens, UniProt Q2M2I8).
T19 construct: capturing and identification of kinases from mixed HeLa placenta lysates; endogenous in cells; host or cells: mixed lysate of HeLa cells and placenta tissue
The settings on record: kinase AAK1; 10 μM free compound; HeLa Placenta lysate mix. The procedure, abridged: as §1

For assay [20], the target named is T20, kinases from mixed HeLa placenta lysates (Homo sapiens, UniProt Q5S007).
T20 construct: capturing and identification of kinases from mixed HeLa placenta lysates; endogenous in cells; host or cells: mixed lysate of HeLa cells and placenta tissue
The settings on record: kinase LRRK2; 10 μM free compound; HeLa Placenta lysate mix. The procedure, abridged:
as §1

In assay [21] the target is T21, kinases from mixed HeLa placenta lysates (Homo sapiens, UniProt Q8TBX8).
T21 construct: capturing and identification of kinases from mixed HeLa placenta lysates; endogenous in cells; host or cells: mixed lysate of HeLa cells and placenta tissue
The settings on record: kinase PIP5K2C; 10 μM free compound; HeLa Placenta lysate mix. The procedure, abridged: as §1

Assay [22] addresses T22, kinases from mixed HeLa placenta lysates (Homo sapiens, UniProt Q8TD19).
T22 construct: capturing and identification of kinases from mixed HeLa placenta lysates; endogenous in cells; host or cells: mixed lysate of HeLa cells and placenta tissue
The settings on record: kinase NEK9; 10 μM free compound; HeLa Placenta lysate mix. The procedure, abridged:
as §1

Assay [23] deals with T23, kinases from mixed HeLa placenta lysates (Homo sapiens, UniProt Q96C45).
T23 construct: capturing and identification of kinases from mixed HeLa placenta lysates; endogenous in cells; host or cells: mixed lysate of HeLa cells and placenta tissue
The settings on record: kinase ULK4; 10 μM free compound; HeLa Placenta lysate mix. An outline of the steps:
as §1

Assay [24] has as its target T24, kinases from mixed HeLa placenta lysates (Homo sapiens, UniProt Q9Y6R4).
T24 construct: capturing and identification of kinases from mixed HeLa placenta lysates; endogenous in cells; host or cells: mixed lysate of HeLa cells and placenta tissue
The settings on record: kinase MAP3K4; 10 μM free compound; HeLa Placenta lysate mix. An outline of the steps:
as §1

T20 sequence (Q5S007 whole entry): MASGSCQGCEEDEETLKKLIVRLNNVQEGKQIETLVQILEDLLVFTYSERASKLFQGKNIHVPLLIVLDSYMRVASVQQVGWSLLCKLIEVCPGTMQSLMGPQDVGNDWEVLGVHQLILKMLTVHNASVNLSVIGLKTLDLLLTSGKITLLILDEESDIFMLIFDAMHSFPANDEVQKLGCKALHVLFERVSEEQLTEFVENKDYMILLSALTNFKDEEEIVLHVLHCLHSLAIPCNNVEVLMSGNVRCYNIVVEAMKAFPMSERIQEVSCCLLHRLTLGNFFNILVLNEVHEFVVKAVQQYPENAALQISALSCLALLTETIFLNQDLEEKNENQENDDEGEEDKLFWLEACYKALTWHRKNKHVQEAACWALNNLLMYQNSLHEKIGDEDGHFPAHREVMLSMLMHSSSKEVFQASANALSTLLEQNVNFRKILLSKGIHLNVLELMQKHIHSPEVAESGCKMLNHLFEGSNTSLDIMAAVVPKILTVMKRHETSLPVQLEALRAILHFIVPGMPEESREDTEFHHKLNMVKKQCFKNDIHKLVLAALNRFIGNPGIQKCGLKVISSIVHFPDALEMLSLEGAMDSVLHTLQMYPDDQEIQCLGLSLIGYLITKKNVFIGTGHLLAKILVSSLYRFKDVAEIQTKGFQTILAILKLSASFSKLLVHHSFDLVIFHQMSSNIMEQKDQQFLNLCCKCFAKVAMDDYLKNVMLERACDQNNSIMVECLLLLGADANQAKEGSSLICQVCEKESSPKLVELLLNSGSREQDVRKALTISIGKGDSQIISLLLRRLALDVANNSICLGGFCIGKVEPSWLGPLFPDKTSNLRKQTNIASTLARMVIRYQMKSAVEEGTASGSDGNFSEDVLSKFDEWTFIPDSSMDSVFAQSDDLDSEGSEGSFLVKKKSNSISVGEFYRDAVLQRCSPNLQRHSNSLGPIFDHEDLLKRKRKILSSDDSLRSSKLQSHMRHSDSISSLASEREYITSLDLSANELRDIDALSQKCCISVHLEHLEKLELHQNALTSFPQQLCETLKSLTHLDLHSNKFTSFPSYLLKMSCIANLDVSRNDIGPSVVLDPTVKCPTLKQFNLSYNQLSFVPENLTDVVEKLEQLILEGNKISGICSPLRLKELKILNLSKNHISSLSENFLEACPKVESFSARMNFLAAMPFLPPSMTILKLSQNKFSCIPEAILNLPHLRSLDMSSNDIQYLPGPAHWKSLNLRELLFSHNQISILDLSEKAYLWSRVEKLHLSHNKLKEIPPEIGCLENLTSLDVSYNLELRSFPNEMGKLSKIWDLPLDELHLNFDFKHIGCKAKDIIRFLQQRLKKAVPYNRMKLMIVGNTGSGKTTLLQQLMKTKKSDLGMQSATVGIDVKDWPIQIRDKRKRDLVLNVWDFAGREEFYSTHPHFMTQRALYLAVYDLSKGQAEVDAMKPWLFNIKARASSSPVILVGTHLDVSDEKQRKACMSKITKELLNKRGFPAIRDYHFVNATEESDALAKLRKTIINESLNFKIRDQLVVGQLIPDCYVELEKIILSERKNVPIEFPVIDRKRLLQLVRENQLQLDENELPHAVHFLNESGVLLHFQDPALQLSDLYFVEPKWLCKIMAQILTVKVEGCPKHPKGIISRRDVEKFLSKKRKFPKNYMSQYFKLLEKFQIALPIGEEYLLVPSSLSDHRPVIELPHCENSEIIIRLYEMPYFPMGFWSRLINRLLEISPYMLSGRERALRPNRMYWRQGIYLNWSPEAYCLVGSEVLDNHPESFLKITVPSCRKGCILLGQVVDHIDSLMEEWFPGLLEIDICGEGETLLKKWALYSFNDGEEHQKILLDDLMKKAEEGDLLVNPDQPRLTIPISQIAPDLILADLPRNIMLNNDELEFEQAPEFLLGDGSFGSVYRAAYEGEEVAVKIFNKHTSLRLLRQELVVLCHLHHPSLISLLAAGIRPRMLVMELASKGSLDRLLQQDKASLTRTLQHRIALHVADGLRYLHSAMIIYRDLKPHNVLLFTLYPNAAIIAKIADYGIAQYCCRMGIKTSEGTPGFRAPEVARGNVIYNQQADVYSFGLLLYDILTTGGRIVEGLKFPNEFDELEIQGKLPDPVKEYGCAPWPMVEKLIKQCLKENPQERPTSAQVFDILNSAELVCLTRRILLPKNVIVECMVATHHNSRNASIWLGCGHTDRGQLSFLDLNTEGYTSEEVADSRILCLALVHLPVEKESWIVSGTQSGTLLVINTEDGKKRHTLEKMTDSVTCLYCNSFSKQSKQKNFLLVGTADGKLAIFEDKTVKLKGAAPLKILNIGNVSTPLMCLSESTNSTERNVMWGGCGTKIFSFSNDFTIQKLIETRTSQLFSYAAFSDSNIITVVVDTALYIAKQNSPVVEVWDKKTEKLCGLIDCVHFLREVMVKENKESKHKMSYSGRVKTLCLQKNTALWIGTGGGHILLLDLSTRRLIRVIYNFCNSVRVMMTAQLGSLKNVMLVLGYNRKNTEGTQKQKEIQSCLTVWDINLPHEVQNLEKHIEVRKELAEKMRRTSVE
T22 sequence (Q8TD19 whole entry): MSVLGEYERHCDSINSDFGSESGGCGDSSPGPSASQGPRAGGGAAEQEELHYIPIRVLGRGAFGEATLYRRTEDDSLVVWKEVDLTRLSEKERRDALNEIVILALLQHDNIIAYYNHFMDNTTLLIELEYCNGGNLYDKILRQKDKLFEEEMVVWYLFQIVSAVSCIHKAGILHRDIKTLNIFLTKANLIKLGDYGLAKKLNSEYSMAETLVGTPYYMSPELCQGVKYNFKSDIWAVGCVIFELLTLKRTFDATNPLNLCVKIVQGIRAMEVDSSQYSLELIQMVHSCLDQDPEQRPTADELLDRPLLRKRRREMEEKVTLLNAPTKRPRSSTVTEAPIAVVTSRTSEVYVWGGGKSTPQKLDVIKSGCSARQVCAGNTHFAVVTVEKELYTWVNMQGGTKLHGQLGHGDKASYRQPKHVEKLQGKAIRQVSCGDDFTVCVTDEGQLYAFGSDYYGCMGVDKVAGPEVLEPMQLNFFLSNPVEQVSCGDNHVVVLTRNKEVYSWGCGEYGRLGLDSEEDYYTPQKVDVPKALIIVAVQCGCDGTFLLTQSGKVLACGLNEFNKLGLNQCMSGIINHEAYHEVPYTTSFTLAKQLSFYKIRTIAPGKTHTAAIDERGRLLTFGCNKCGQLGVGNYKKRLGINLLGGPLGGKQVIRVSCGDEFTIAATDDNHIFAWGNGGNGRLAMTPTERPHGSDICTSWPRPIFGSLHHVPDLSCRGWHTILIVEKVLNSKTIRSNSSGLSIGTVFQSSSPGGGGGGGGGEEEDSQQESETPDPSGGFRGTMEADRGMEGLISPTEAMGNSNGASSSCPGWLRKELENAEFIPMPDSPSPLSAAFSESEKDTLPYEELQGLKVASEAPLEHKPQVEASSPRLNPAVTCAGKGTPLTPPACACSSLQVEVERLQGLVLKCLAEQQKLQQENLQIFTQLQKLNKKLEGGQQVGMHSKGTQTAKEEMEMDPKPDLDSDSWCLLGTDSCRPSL
T1 sequence (O14965 whole entry): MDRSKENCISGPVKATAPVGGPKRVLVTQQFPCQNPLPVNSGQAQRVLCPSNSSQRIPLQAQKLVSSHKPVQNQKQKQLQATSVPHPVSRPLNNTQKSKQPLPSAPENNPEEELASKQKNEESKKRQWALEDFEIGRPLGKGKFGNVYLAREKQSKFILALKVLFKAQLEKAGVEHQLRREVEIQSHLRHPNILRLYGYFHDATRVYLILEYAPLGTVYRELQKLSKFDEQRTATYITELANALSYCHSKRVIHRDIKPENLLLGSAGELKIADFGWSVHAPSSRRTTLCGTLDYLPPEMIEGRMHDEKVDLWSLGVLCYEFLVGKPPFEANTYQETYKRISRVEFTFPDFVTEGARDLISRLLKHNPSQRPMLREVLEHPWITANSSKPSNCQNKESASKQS
T13 sequence (P68400 whole entry): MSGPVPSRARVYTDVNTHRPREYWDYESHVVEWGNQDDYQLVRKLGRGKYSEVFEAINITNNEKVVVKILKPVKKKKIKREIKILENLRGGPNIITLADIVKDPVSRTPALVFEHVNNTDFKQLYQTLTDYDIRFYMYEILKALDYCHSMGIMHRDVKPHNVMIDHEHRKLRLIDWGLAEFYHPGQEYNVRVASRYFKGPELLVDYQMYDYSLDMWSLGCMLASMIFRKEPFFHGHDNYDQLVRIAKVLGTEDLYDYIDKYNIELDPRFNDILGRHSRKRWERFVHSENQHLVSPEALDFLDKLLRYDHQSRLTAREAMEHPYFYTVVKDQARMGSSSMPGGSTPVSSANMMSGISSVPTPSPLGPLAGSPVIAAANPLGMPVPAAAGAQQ
T7 sequence (P48426 whole entry): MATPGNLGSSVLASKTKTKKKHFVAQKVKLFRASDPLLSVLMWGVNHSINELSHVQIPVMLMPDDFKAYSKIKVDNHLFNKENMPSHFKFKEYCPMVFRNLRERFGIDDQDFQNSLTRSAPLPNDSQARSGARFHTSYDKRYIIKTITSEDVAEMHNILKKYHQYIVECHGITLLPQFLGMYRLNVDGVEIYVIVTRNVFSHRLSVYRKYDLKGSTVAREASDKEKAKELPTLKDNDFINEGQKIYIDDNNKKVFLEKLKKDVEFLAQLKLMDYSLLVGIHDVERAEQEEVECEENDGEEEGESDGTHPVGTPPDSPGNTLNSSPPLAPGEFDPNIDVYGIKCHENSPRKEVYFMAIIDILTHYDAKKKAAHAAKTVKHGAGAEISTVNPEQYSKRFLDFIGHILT
T16 sequence (Q00535 whole entry): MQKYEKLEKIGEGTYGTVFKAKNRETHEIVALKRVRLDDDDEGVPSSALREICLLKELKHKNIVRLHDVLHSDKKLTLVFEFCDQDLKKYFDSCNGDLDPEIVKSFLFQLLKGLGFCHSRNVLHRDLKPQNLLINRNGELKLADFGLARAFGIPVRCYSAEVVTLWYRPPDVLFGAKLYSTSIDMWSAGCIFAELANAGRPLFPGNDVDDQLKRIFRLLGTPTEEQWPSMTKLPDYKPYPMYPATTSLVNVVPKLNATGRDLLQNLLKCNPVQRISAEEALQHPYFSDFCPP

Consider `CS(=O)(=O)Nc1ccccc1Nc1nc(Nc2cccc(OCCN)c2)ncc1F` [CZC25342, N-(2-(2-(3-(2-aminoethoxy)phenylamino)-5-fluoropyrimidin-4-ylamino)phenyl)methanesulfonamide], for which, in assay [1], the “Competition % AurA” value stood at 93.6%. In assay [2], the “Competition % MAP3K6” value was 91.6%. For the same compound, the “Competition % PAK4” value in assay [3] was 94.8%. Also, the “Competition % Erk2” value in assay [4] is given as 48.5%. The “Competition % BMPR1A” value in [5] was 84.1%. In addition, the “Competition % JNK2” value in assay [6] is 83.8%. Moreover, in [7], the “Competition % PIP5K2A” value is on record as 98.7%. In assay [8], the “Competition % GSK3B” value came out at 92.5%. Further, the “Competition % CDK9” value in [9] worked out at 97.6%. In assay [10], the “Competition % RSK2” value is reported as 95.6%. In addition, the “Competition % NEK3” value in assay [11] is listed as 94.8%. In addition, the “Competition % PLK1” value in assay [12] stood at 94.6%. The “Competition % CK2a1” value in assay [13] is listed as 95.2%. Besides, the “Competition % PIP5K2B” value in assay [14] is reported as 97.2%. Further, the “Competition % DNAPK” value in [15] came out at 89.2%. Also, the “Competition % CDK5” value in [16] is 92.6%. In assay [17], the “Competition % FAK” value amounted to 96%. For the same compound, in assay [18], the “Competition % MER” value came out at 96.5%. For the same compound, the “Competition % AAK1” value in assay [19] came to 95.6%. Also, the “Competition % LRRK2” value in assay [20] came out at 87.8%. For the same compound, the “Competition % PIP5K2C” value in assay [21] was found to be 97.3%. Also, the “Competition % NEK9” value in assay [22] stood at 83%. Further, in assay [23], the “Competition % ULK4” value was determined as 84.7%. Also, the “Competition % MAP3K4” value in [24] worked out at 92.2%.
